Test results reported in the supplement of paper PMC10307832.

Assays:
Assay in all cases: relative viability (nuclei count vs DMSO), 5 days (fraction); higher = more cells survive
[1] = compound: C[C@]1(O)C[C@@H](c2nc(-c3ccc4ccc(-c5ccccc5)nc4c3)c3c(N)nccn32)C1 [Linsitinib] + CC(=O)Nc1cccc(-n2c(=O)n(C3CC3)c(=O)c3c(Nc4ccc(I)cc4F)n(C)c(=O)c(C)c32)c1 [Trametinib] (partner 0.02 µM)
How it was run: (§1)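 Relative viability was taken as the ratio of nuclei in treated wells to nuclei in vehicle wells. Lung cancer cell lines in 1536-well plates received compounds by pin tool one day after seeding, either one drug alone or a fixed anchor-drug dose plus five library-drug doses (not always all listed) in √10 steps. Nuclei were counted on 4× images after 5 days of treatment, and values are medians of duplicate plates.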

[2] = compound: Cc1ccc(C(=O)N(CCCN)[C@@H](c2nc3cc(Cl)ccc3c(=O)n2Cc2ccccc2)C(C)C)cc1 [Ispinesib] + CC(C)C[C@H](NC(=O)[C@H](Cc1ccccc1)NC(=O)c1cnccn1)B(O)O [Bortezomib] (partner 0.002 µM)
How it was run: as §1

[3] = compound: C[C@]1(O)C[C@@H](c2nc(-c3ccc4ccc(-c5ccccc5)nc4c3)c3c(N)nccn32)C1 [Linsitinib] + COc1cccc2cc(-c3nc([C@H]4CC[C@H](C(=O)O)CC4)n4ncnc(N)c34)[nH]c12 [OSI-027] (partner 0.5 µM)
How it was run: as §1

[4] = compound: Cc1ccc(C(=O)N(CCCN)[C@@H](c2nc3cc(Cl)ccc3c(=O)n2Cc2ccccc2)C(C)C)cc1 [Ispinesib] + COc1cc2c(Oc3ccc(NC(=O)C4(C(=O)Nc5ccc(F)cc5)CC4)cc3F)ccnc2cc1OCCCN1CCOCC1 [Foretinib] (partner 0.25 µM)
How it was run: as §1

Cell Line	relative viability ([1]; first compound 0.01 µM)	relative viability ([1]; first compound 0.03162 µM)	relative viability ([1]; first compound 0.1 µM)	relative viability ([1]; first compound 0.3162 µM)	relative viability ([1]; first compound 1 µM)	relative viability ([2]; first compound 0.001 µM)	relative viability ([2]; first compound 0.003162 µM)	relative viability ([2]; first compound 0.01 µM)	relative viability ([2]; first compound 0.03162 µM)	relative viability ([2]; first compound 0.1 µM)	relative viability ([3]; first compound 0.01 µM)	relative viability ([3]; first compound 0.03162 µM)	relative viability ([3]; first compound 0.1 µM)	relative viability ([3]; first compound 0.3162 µM)	relative viability ([3]; first compound 1 µM)	relative viability ([4]; first compound 0.001 µM)	relative viability ([4]; first compound 0.003162 µM)	relative viability ([4]; first compound 0.01 µM)	relative viability ([4]; first compound 0.03162 µM)	relative viability ([4]; first compound 0.1 µM)
NCI-H322M	0.513	0.548	0.571	0.531	0.473	1.38	1.33	1.41	0.722	0.757	0.547	0.47	0.531	0.361	0.384	1.09	0.994	0.957	0.498	0.43
NCI-H1734	0.642	0.685	0.61	0.468	0.605	0.943	0.954	0.997	0.962	0.328	0.737	0.469	0.634	0.504	0.293	0.809	0.859	1.08	0.827	0.343
NCI-H2228	0.569	0.595	0.378	0.347	0.363	1.2	1.21	1.48	0.474	0.448	0.57	0.604	0.492	0.335	0.254	0.909	0.957	1.24	1	0.322
EKVX	–	0.321	0.436	0.234	0.294	1.09	1.24	1.15	0.939	0.186	0.706	0.723	0.687	0.467	0.607	0.897	0.85	1.05	0.604	0.275
NCI-H596	0.705	0.715	0.74	0.827	0.732	1.14	1.22	1.12	1.08	0.463	0.7	0.694	0.802	0.674	0.448	0.87	0.859	0.791	0.795	0.434
NCI-H1975	0.396	0.336	0.331	0.308	0.272	0.471	0.437	0.331	0.19	0.261	0.68	0.738	0.722	0.544	0.347	0.996	0.934	1.05	0.632	0.144
NCI-H1666	0.8	0.907	0.904	0.644	0.594	0.704	0.761	0.64	0.305	0.321	0.772	0.957	0.759	0.476	0.434	1.03	0.989	0.903	0.918	0.539
PC-3 [JPC-3]	0.691	0.766	0.668	0.591	0.545	0.796	0.869	0.903	0.763	0.297	0.709	0.79	0.664	0.651	0.463	1.09	1.1	0.594	1.07	0.751
